Results reported in US11214556B1, “Method of treating colorectal cancer” (King Abdulaziz University, priority 2019, dated 2022).
Entries after “also recorded” stand apart in the source; their conditions may differ.

Columns and labels:
HCT-116 cells [1] = test: Nuclear fragmentation by DAPI staining; format: cell-based, human; conditions: 32 μM (IC50 concentration), 48 hours
Description: Several assays were performed to determine the apoptotic effect of the early lead MOS-1512 as well as the potent derivative MOS-4112 on HCT-116 cells. […] See Drutovic, D.; Chripkova, M.; Pilatova, M.; Kruzliak, P.; Perjesi, P.; Sarissky, M.; Lupi, M.; Damia, G.; Broggini, M.; Mojzis, J., Benzylidenetetralones, cyclic chalcone analogues, induce cell cycle arrest and apoptosis in HCT116 colorectal cancer cells. Tumour Biol 2014, 35 (10), 9967-75, incorporated herein by reference in its entirety.
Cells were cultured on sterile 22 mm^2 cover slips (Harvard Apparatus, MA, USA) in sterile six well plates at a density of 2×10^5 cells/well. […] The fixed and permeabilized cells nuclei were denatured with 2 N HCl (300 μl) for 10 min, washed three times more, and treated with 0.1 μg/ml 4′,6′-diamidino-2-phenylindole, dihydrochloride (DAPI) (Sigma-Aldrich, St. Louis, Mo., USA) (1:1000) in (phosphate-buffered saline-Tween 20 (PBST) for 1 hr. After staining, the cells were washed twice with PBS. The cover slips were then mounted on a glass slide with anti-fade mounting medium and viewed with an epifluorescence microscope, Leica, DM 5500 B (Leica, Buffalo Grove, Ill., USA) at a magnification of 60×, and data were captured digitally and quantified using the microscope provided software.

HCT-116 cells [2] = test: SRB cytotoxicity assay, HCT-116; format: cell-based, human; conditions: for IC50: Homo sapiens, HCT-116, SRB assay, 72 h exposure, ± SEM
Description: Compounds in this study were tested against colorectal cancer cell line HCT-116, using sulforhodamine-B (SRB) assay. See Skehan, P.; Storeng, R.; Scudiero, D.; Monks, A.; McMahon, J.; Vistica, D.; Warren, J. T.; Bokesch, H.; Kenney, S.; Boyd, M. R., New colorimetric cytotoxicity assay for anticancer-drug screening. J Natl Cancer Inst 1990, 82 (13), 1107-12, incorporated herein by reference in its entirety. […] However, it was clear that compounds bearing hydrophobic aliphatic groups such as MOS-1505 and MOS-1512 are clearly favored in providing anticancer activities. […] The N-aryl substituents were less advantageous in both potency and solubility.
(§1) Different cell lines were originally purchased from American type culture collection (ATCC, Wesel, Germany) and grown in the tissue culture lab of the Egyptian company for production of vaccines, sera and drugs (Vacsera, Giza, Egypt). The cells were transferred to our laboratory and maintained in the appropriate media as following. HCT-116, CACO-2, and HT-29 (human colon cancer cell lines) were maintained in Roswell Park Memorial Institute medium (RPMI1640) (Invitrogen, Carlsbad, Calif.). The mouse skin fibroblasts (C-166) and Baby Hamster Kidney fibroblasts (BHK) were grown in Dulbecco Modified Eagle's medium (DMEM). Both media were supplemented with 1% of […] of streptomycin, 100 units/mL of penicillin and 10% of heat-inactivated fetal bovine serum (Invitrogen, Carlsbad, Calif.) in a humidified, 5% (v/v) CO2 atmosphere at 37° C.
(§2) The sulforhodamine B (SRB) assays were performed according to Skehan, P.; Storeng, R.; Scudiero, D.; Monks, A.; McMahon, J.; Vistica, D.; Warren, J. T.; Bokesch, H.; Kenney, S.; Boyd, M. R., New colorimetric cytotoxicity assay for anticancer-drug screening. J Natl Cancer Inst 1990, 82 (13), 1107-12, incorporated herein by reference in its entirety. Briefly, exponentially growing cells were trypsinized, counted and seeded at the appropriate densities (5000 cells/100 μL/well) into 96-well microtiter plates. Cells were incubated in a humidified atmosphere at 37° C. for 24 h. Then, the cells were exposed to different compounds at the desired concentrations, (0.01, 0.1, 1, 10, and 100 μM) or to 1% dimethyl sulfoxide (DMSO) for 72 h. At the end of the treatment period, the media were removed, and the cells were fixed with 10% trichloroacetic acid at 4° C. for 1 hr. Following, the cells were washed with tap water four times and incubated with SRB 0.4% for 30 min. Excess dye was removed by washing repeatedly with 1% (vol/vol) acetic acid. The protein-bound dye was dissolved in 10 mM Tris base solution for (optical density) OD determination at 510 nm using a SpectraMax plus Microplate Reader (Molecular Devices, CA). Cell viability was expressed relative to the untreated control cells.

[3] = tested on: C-166 mouse skin fibroblasts; test: Selectivity versus normal C-166 fibroblasts; format: cell-based; conditions: HCT-116, Caco-2 and HT-29 versus C-166
Description: FIG. 3A is a graph illustrating the dose-response curve of compound 1512 on HCT-116 cell lines and C-166 cell line;
See El-Araby, M. E.; Omar, A. M.; Khayat, M. T.; Assiri, H. A.; Al-Abd, A. M., Molecular Mimics of Classic P-Glycoprotein Inhibitors as Multidrug Resistance Suppressors and Their Synergistic Effect on Paclitaxel. PLoS One 2017, 12 (1), e0168938, incorporated herein by reference in its entirety.
Different cell lines were originally purchased from American type culture collection (ATCC, Wesel, Germany) and grown in the tissue culture lab of the Egyptian company for production of vaccines, sera and drugs (Vacsera, Giza, Egypt). The cells were transferred to our laboratory and maintained in the appropriate media as following. […]
The sulforhodamine B (SRB) assays were performed according to Skehan, P.; Storeng, R.; Scudiero, D.; Monks, A.; McMahon, J.; Vistica, D.; Warren, J. T.; Bokesch, H.; Kenney, S.; Boyd, M. R., New colorimetric cytotoxicity assay for anticancer-drug screening. […] Briefly, exponentially growing cells were trypsinized, counted and seeded at the appropriate densities (5000 cells/100 μL/well) into 96-well microtiter plates. […] The protein-bound dye was dissolved in 10 mM Tris base solution for (optical density) OD determination at 510 nm using a SpectraMax plus Microplate Reader (Molecular Devices, CA). […]

HT-29 cells = test: SRB cytotoxicity assay, HT-29; format: cell-based, human; conditions: Homo sapiens, HT-29, monolayer, 72 h exposure, ± SEM
Description: (§3) Based on the favorable pharmacologic and physicochemical properties of MOS-1512, it was selected as a new lead for the second subset of compounds (MOS-1812 to MOS-5112). The compounds in this series contained variable groups at R^1 and R^2 that were all tested against the three cancer cell lines (HCT-116, Caco-2 and HT-29).
as §1, §2

CACO-2 cells = test: SRB cytotoxicity assay, CACO-2; format: cell-based, human; conditions: Homo sapiens, Caco-2, 72 h exposure, ± SEM
Description: as §3, §1, §2

Swiss albino mice = test: Acute oral toxicity (LD50), OECD guideline 423; format: in vivo; conditions: both, Swiss albino, mouse, in vivo, po, 24 h
Description: (§4) Since compounds with electrophilic properties, e.g., MA are usually involved in a variety of toxic effects on mammalians, the general acute toxicity of 1512, 3712 and 4112 was investigated by determining the in vivo lethal dose (LD50) according to the Globally Harmonized Classification System (GHS) and following the Organization for Economic Cooperation and Development (OECD) guideline 423 (modified, adopted Mar. 23, 2006). As observed in the cellular assay, the compound safety was confirmed, as the LD50 for all compounds were between 2000-5000 mg/kg (Category 5). See Spielmann, H.; Genschow, E.; Liebsch, M.; Halle, W., Determination of the starting dose for acute oral toxicity (LD50) testing in the up and down procedure (UDP) from cytotoxicity data. ATLA 1999, 27 (6), 957-966, incorporated herein by reference in its entirety.
(§5) The experiment was conducted on 12 healthy Swiss albino mice (males and females) weighing 22-27 g and aged 8 to 10 weeks obtained from the Animal Station, Pharmacology Dept, Faculty of Pharmacy, King Abdulaziz University, Jeddah. See Shoieb, S. M.; Esmat, A.; Khalifa, A. E.; Abdel-Naim, A. B., Chrysin attenuates testosterone-induced benign prostate hyperplasia in rats. Food and Chemical Toxicology 2018, 111, 650-659, incorporated herein by reference in its entirety. All animals were kept at the regulated temperature (average 23° C.), air quality (Central air conditioning) and light (12-h light/dark cycles). Animals were provided free access to food pellets ad libitum and water. The experimental procedure was approved by the Research Ethics Committee, Faculty of Pharmacy, King Abdulaziz University prior to starting the laboratory work. Animals were humanely treated according to international and scientific principles. Changes other than vitality of the animals such as behavioral and food consumption habits were not observed in this study.
(§6) The compounds 1512, 3712 and 4112 of purity 95% or more (LC/MS) were prepared for this study as 10% suspension in water containing 0.5% tween 80.
(§7) The animals were distributed randomly into four groups (3 mice at each group). […] The second group received an oral dose of 2000 mg/Kg of the drug and observed after 24 h to count the deceased animals. According to the Guideline 423, when all animals were found alive, the same test was repeated (dose 2000 mg/kg) were given to the third group (3 animals) and observed for 24 h. All animals survived and therefore, a dose of 5000 mg/kg were administered to the fourth and final group.

[4] = Acute oral toxicity (LD50), OECD guideline 423; format: in vivo; conditions: both sexes, Swiss albino, mouse, in vivo, po
Description: as §4, §5, §6, §7

Solubility profile = format: physicochemical; conditions: stated in words together with C log P
[5] = tested on: CRC cell lines (HCT-116, Caco-2 and HT-29); test: Cytotoxic activities against CRC cell lines (statement over three lines); format: cell-based; conditions: Homo sapiens
Description: as §3, §1, §2

[6] = tested on: HT-29 colon cancer cell spheroids (cancer stem cells); test: Primary (1°) colonosphere formation assay; format: cell-based, human
Description: Compound 4112 and another potent compound 3712 were also evaluated for their ability to inhibit cancer stem cell proliferation using a primary (1°) colonosphere formation assay. In this assay, HT-29 colon cancer cells were grown in low adhesion plates to form spheres as previously described. See Patel, N. J.; Karuturi, R.; Al-Horani, R. A.; Baranwal, S.; Patel, J.; Desai, U. R.; Patel, B. B., Synthetic, non-saccharide, glycosaminoglycan mimetics selectively target colon cancer stem cells. ACS Chem Biol 2014, 9 (8), 1826-33, incorporated herein by reference in its entirety. Wells treated with the inventive compounds were compared to vehicle treated cells for primary sphere growth inhibition after 5 days of incubation. […] Of note, monolayer growth conditions are ideally suited for examining cellular proliferation, whereas spheroid growth conditions examine cancer stem cell growth and self-renewal properties.
For primary sphere formation, cells were plated in nontreated, low adhesion, 96 wells plate at the concentration of 100 cells/100 μL/well in stem cell media (SCM) that consisted of DMEM:F12:AA (Gibco), supplemented with 1×B27 (Gibco), 20 ng/mL epidermal growth factor, and 10 ng/mL fibroblast growth factor (Sigma). After 4 h of incubation, vehicle (control) or 3712 and 4112 at the desired concentrations were added to each well (at least in triplicates for each sample). On day five, numbers of spheres ranging from […] in diameter were counted using phase contrast microscope and percent inhibition was calculated compared to control.

With CCCNC(=O)/C(=C/c1ccccc1)NC(=O)/C=C/c1ccccc1 [Compound 1512, (Z)-2-[(E)-cinnamamido]-3-phenyl-N-propylacrylamide] the “nuclear structure/morphology, DAPI staining” value (HCT-116 cells [1]) was “very strong blue fluorescence; also recorded: nuclear condensation and fragmentation”, the IC50 (HCT-116 cells [2]) was 32 ± 2.6 µM and the “cancer cell resistance (R-value)” value (HCT-116 cells [2]; dose-response curve, FIG. 3A) was 8.2%. For the same compound, the “selectivity in killing cancer cells versus normal cells” value [3] was “high selectivity”, the IC50 (HT-29 cells) was 35.5 ± 1.7 µM and the IC50 (CACO-2 cells) was 38 ± 0.87 µM. The “GHS acute toxicity category” value (Swiss albino mice) was “Category 5”, the LD50 at 24 h [4] was 2000 to 5000 mg/kg and the solubility (Solubility profile) was “better solubility profile”.
With CCCNC(=O)/C(=C/c1c[nH]c2ccccc12)NC(=O)C=Cc1ccccc1 [Compound 3712, (Z)-2-cinnamamido-3-(1H-indol-3-yl)-N-propylacrylamide] the IC50 [5] was < 5 µM, the IC50 ([6]; Homo sapiens, 120 h, HT-29 spheres, 5 days of incubation) was 21.1 ± 1.3 µM and the “inhibition of colon cancer spheroids formation” value ([6]; spheroids >50 μm, 5 days) was “dose-dependent inhibition”. The IC50 (HCT-116 cells [2]) was 1.65 ± 0.05 µM, the IC50 (HT-29 cells) was 2.36 ± 0.04 µM and the IC50 (CACO-2 cells) was 2.1 ± 0.03 µM. For the same compound, the “GHS acute toxicity category” value (Swiss albino mice) was “Category 5” and the LD50 at 24 h [4] was 2000 to 5000 mg/kg.
